Experimental findings from patent US6300368A, “Anilide derivatives and antiarrhythmic agents containing the same” (priority 1998, dated 2001) are described below.

Where a name gives a salt, the structure may show the parent alone.

The assay deals with aconitin-induced atrial fibrillation. Kind of assay: Aconitin-induced atrial fibrillation model in anaesthetized dogs (Pharmacological Trial 1). It is filed as in vivo, dog. Conditions: Canis lupus familiaris; intravenous, anesthetized dogs, as hydrochloride; read-out: minimum dose level which suppresses atrial fibrillation. How it is done:
Pharmacological Trial 1: Evaluation of effectiveness in aconitin-induced atrial fibrillation model (dogs) Evaluation was performed according to K. Hashimoto (Jpn. J. Pharmacol., Vol. 46, 349-358, 1988) as follows:
Method: Dog was anesthetized and thoracotomy was made. Persistent atrial fibrillation was induced by placing a piece of filter paper impregnated with 0.5% aconitin solution (20 to 30 μl) on the right atrium. […] Onset and suppression of atrial fibrillation were monitored electrocardiographically by placing Ag--AgCl bipolar electrode on the right atrial auricle.
Results: Each compound in Examples 1 to 87 suppressed atrial fibrillation at least following dose level (all compounds were used in the form of hydrochloride).

As for `COCCNCCOc1ccc(NC(=O)CCOC)cc1.Cl` [Example 44, 4'-[2-[(2-Methoxyethyl)amino]ethoxy]-3-methoxy propananilide Hydrochloride], the minimal effective dose is 10 mg/kg. With `COCCNCCOc1ccc(NC(=O)c2ccoc2)cc1.Cl` [Example 45, 4'-[2-[(2-Methoxyethyl)amino]ethoxy]-3-furanilide Hydrochloride] the figure was 10 mg/kg. Regarding `CCOCCNCCOc1ccc(NC(=O)c2c(OC)cccc2OC)cc1` [Example 46, 4'-[2-[(2-Ethoxyethyl)amino]ethoxy]-2,6-dimethoxy Benzanilide], the minimal effective dose is 10 mg/kg.

As for `CCOCCNCCOc1ccc(NC(=O)c2ccccc2NS(C)(=O)=O)cc1` [Example 47, 4'-[2-[(2-Ethoxyethyl)amino]ethoxy]-2-(methanesulfonamido)benzanilide], the minimal effective dose was 3 mg/kg. Then `COCCCNCCOc1ccc(NC(=O)c2c(OC)cccc2OC)cc1` [Example 48, 2,6-Dimethoxy-4'-[2-[(3-methoxypropyl)amino]ethoxy]benzanilide], with 3 mg/kg. Then `COCCCNCCOc1ccc(NC(=O)c2ccccc2NS(C)(=O)=O)cc1.Cl` [Example 49, 2-Methanesulfonamido-4'-[2-[(3-methoxypropyl)amino]ethoxy]benzanilide Hydrochloride], with 10 mg/kg; and `COc1cccc(OC)c1C(=O)Nc1ccc(OCCNC2CC2)cc1` [Example 50, 4'-[2-(Cyclopropylamino)ethoxy]-2,6-dimethoxybenzanilide], with 3 mg/kg; and `Cl.O=C(Nc1ccc(OCCNC2CC2)cc1)C1CCOC1` (stereo not shown) [Example 51, 4'-[2-(Cyclopropylamino)ethoxy]-2,3,4,5-tetrahydro-3-furanilide Hydrochloride], with 3 mg/kg. Then `O=C(Nc1ccc(OCCNC2CC2)cc1)C1CCOCC1` [Example 52, 4'-[2-(Cyclopropylamino)ethoxy]-3,4,5,6-tetrahydro-2H-pyran-4-carboxanilideHydrochloride], with 3 mg/kg. For `COCCC(=O)Nc1ccc(OCCNC2CC2)cc1` [Example 53, 4'-[2-(Cyclopropylamino)ethoxy]-3-methoxypropananilide], the minimal effective dose came out at 10 mg/kg. With `CS(=O)(=O)Nc1ccccc1C(=O)Nc1ccc(OCCNC2CCCC2)cc1` [Example 54] the figure was 10 mg/kg; with `COc1cccc(OC)c1C(=O)Nc1ccc(OCCNC2CCCCC2)cc1` [Example 55, 4'-[2-(Cyclohexylamino)ethoxy]-2,6-dimethoxybenzanilide], 0.3 mg/kg. Then `CCNCCOc1ccc(NC(=O)c2ccoc2)cc1OC.Cl` [Example 56, 4'-[2-(Ethylamino)ethoxy]-3'-methoxy-3-furanilide Hydrochloride], with 10 mg/kg; and `COCCC(=O)Nc1ccc(OCCNC(C)C)c(OC)c1` [Example 57, 4'-[2-(Isopropylamino)ethoxy]-3-methoxy-3-methoxypropananilide], with 10 mg/kg.

In the case of `COc1cc(NC(=O)c2ccccc2NS(C)(=O)=O)ccc1OCCNC(C)C` [Example 58, 4'-[2-(Isopropylamino)ethoxy]-2-meth anesulfonamido-3'-methoxybenzanilide], the minimal effective dose is 10 mg/kg. With `COc1cc(NC(=O)c2ccccc2S(C)(=O)=O)ccc1OCCNC(C)C.Cl` [Example 59, 4'-[2-(Isopropylamino)ethoxy]-2-methanesulfonyl-3'-methoxybenzanilide Hydrochloride] the figure was 10 mg/kg; with `COc1cc(NC(=O)c2ccoc2)ccc1OCCNC(C)C.Cl` [Example 60, 4'-[2-(Isopropylamino)ethoxy]-3'-methoxy-3-furanilide Hydrochloride], 10 mg/kg; with `COCCC(=O)Nc1ccc(OCCNC2CCCC2)c(OC)c1` [Example 61, 4'-[2-(Cyclopentylamino)ethoxy]-3'-methoxy-3-methoxypropananilide], 10 mg/kg.

In the case of `COc1cc(NC(=O)c2c(OC)cccc2OC)ccc1OCCNC1CCCC1.Cl` [Example 62, 4'-[2-(Cyclopentylamino)ethoxy]-2,6-dimethoxy-3'-methoxybenzanilide Hydrochloride], the minimal effective dose was determined as 10 mg/kg.

Consider `CCN(CC)CCOc1ccc(NC(=O)c2c(OC)cccc2OC)cc1OC` [Example 63, 4'-[2-(Diethylamino)ethoxy]-2,6-dimethoxy-3-methoxybenzanilide], for which the minimal effective dose amounted to 10 mg/kg. Then `COc1cccc(OC)c1C(=O)Nc1ccc(OCCNC(C)C)cc1NS(C)(=O)=O` [Example 64, 4'-[2-(Isopropylamino)ethoxy]-2'-methanesulfonamido-2,6-dimethoxybenzaniideHydrochloride], with 10 mg/kg; and `COc1cccc(OC)c1C(=O)Nc1ccc(OCCNC(C)C)c(NS(C)(=O)=O)c1` [Example 65, 4'-[2-(Isopropylamino)ethoxy]-3'-methanesulfonamido-2,6-dimethoxybenzanilide], with 10 mg/kg; and `CC(C)NCCOc1ccc(NC(=O)c2ccccc2NS(C)(=O)=O)cc1NS(C)(=O)=O.Cl` [Example 66, 4'-[2-(Isopropylamino)ethoxy]-2-methanesulfonamido-3'-(methanesulfonamido)benzanilide Hydrochloride], with 3 mg/kg. With `CC(C)NCCOc1ccc(NC(=O)c2ccoc2)cc1NS(C)(=O)=O.Cl` [Example 67, 4'-[2-(Isopropylamino)ethoxy]-3'-methanesulfonamido-3-furanilide Hydrochloride] the figure was 10 mg/kg; with `CS(=O)(=O)Nc1cc(NC(=O)c2ccccc2NS(C)(=O)=O)ccc1OCCNC1CCCC1.Cl` [Example 68, 4'-[2-(Cyclopentylamino)ethoxy]-2-methanesulfonamido-3'-(methanesulfonamido)benzanilide Hydrochloride], 10 mg/kg. Turning to `COc1cccc(OC)c1C(=O)Nc1ccc(OCCNC(C)C)cc1C.Cl` [Example 69, 4'-[2-(Isopropylamino)ethoxy]-2,6-dimethoxy-2'-methyl benzanilide Hydrochloride], the minimal effective dose was determined as 3 mg/kg. Then `Cc1cc(OCCNC(C)C)ccc1NC(=O)c1ccccc1NS(C)(=O)=O.Cl` [Example 70, 4'-[2-(Isopropylamino)ethoxy]-2-methanesulfonamido-2'-methylbenzanilide Hydrochloride], with 3 mg/kg; and `COCCC(=O)Nc1ccc(OCCNC(C)C)cc1C` [Example 71, 4'-[2-(Isopropylamino)ethoxy]-3-methoxy-2'-methylpropananilide], with 3 mg/kg; and `Cc1cc(OCCNC(C)C)ccc1NC(=O)c1ccoc1.Cl` [Example 72, 4'-[2-(Isopropylamino)ethoxy]-2'-methyl-3-furanilide Hydrochloride], with 3 mg/kg.

With `CCN(CC)CCOc1ccc(NC(=O)c2c(OC)cccc2OC)c(C)c1` [Example 73, 4'-[2-(Diethylamino)ethoxy]-2-dimethoxy-2'-methyl Benzanilide], the minimal effective dose is 3 mg/kg. Then `COc1cccc(OC)c1C(=O)Nc1ccc(OCCNC(C)C)c(C)c1.Cl` [Example 74, 4'-[2-(Isopropylamino)ethoxy]-2,6-dimethoxy-3'-methylbenzanilide Hydrochloride], with 3 mg/kg; and `Cc1cc(NC(=O)c2ccccc2NS(C)(=O)=O)ccc1OCCNC(C)C.Cl` [Example 75, 4'-[2-(Isopropylamino)ethoxy]-2-methanesulfonamido-3'-methylbenzanilide Hydrochloride], with 10 mg/kg; and `Cc1cc(NC(=O)c2ccccc2S(C)(=O)=O)ccc1OCCNC(C)C.Cl` [Example 76, 4'-[2-(Isopropylamino)ethoxy]-2-methanesulfonyl-3'-methylbenzanilide Hydrochloride], with 3 mg/kg.

Take `Cc1cc(NC(=O)C2CCOCC2)ccc1OCCNC(C)C.Cl` [Example 77, 4'-[2-(Isopropylamino)ethoxy]-3'-methyl-3,4,5,6-tetrahydro-2H-pyran-4-carboxanilide Hydrochloride]: the minimal effective dose came to 10 mg/kg. With `COCCC(=O)Nc1ccc(OCCNC(C)C)c(C)c1.Cl` [Example 78, 4'-[2-(Isopropylamino)ethoxy]-3-methoxy-3'-methylpropananilide Hydrochloride] the figure was 3 mg/kg; with `Cc1cc(NC(=O)c2ccoc2)ccc1OCCNC(C)C.Cl` [Example 79, 4'-[2-(Isopropylamino)ethoxy]-3'-methyl-3-furanilide Hydrochloride], 10 mg/kg. Then `CCNCCOc1c(C)cc(NC(=O)c2ccccc2NS(C)(=O)=O)cc1C.Cl` [Example 80, 4'-[2-(Ethylamino)ethoxy]-2-methanesulfonamido-3',5'-dimethylbenzanilide Hydrochloride], with 3 mg/kg; and `CCNCCOc1c(C)cc(NC(=O)c2ccccc2S(C)(=O)=O)cc1C.Cl` [Example 81, 4'-[2-(Ethylamino)ethoxy]-2-methanesulfonyl-3',5'-dimethylbenzanilide Hydrochloride], with 3 mg/kg; and `COc1cccc(OC)c1C(=O)Nc1cc(C)c(OCCNC(C)C)c(C)c1.Cl` [Example 82, 4'-[2-(Isopropylamino)ethoxy]-2,6-dimethoxy-3',5'-dimethyl benzanilide Hydrochloride], with 10 mg/kg.

For the compound `Cc1cc(NC(=O)c2ccccc2S(C)(=O)=O)cc(C)c1OCCNC(C)C.Cl` [Example 83, 4'-[2-(Isopropylamino)ethoxy]-2-methanesulfonyl-3',5'-dimethylbenzanilide Hydrochloride], the minimal effective dose was 10 mg/kg.
